Values joined by “and” are separate entries in the source; they are usually repeats but may differ in a detail not shown here. Identical values can stand only once.

The values below come from paper PMC12316308, “Interactions of substrates and phosphinyl containing inhibitors with bacterial and human zinc proteases” (PLOS One, 2025).

The target in assay [1] is T1, human MT1-MMP/MMP-14 (catalytic domain) (Homo sapiens, UniProt P50281).
T1 construct: human MT1-MMP/MMP-14 (catalytic domain); purchased Calbiochem (San Diego, CA, USA)
Kind of assay: Enzyme inhibition kinetics, fluorogenic substrate ES001. Conditions: inhibitor 10 μM. It counts as biochemical.

For assay [2], the system named is MMP-12. Also on record: method as in PMID 27996256, PMID 23343195. Conditions: cited from earlier work.

Turning to `NC(=O)C(Cc1c[nH]c2ccccc12)NC(=O)C(CCCc1ccccc1)CP(=O)(O)C(Cc1ccccc1)NC(=O)OCc1ccccc1` (stereo not drawn) [H-2], the “vi/v0 (relative enzyme activity with inhibitor), single determinations” value in assay [1] (preincubation 15 min) was 0.1646 and 0.1715 and 0.1368 and 0.1654; in assay [1] (preincubation 30 min), 0.1465 and 0.1449 and 0.1477 and 0.1505. `NC(=O)C(CCC(=O)O)NC(=O)C(CCC(=O)O)NC(=O)C(Cc1cc(-c2ccc(-c3cccc(Cl)c3)cc2)no1)CP(=O)(O)c1ccc(Br)cc1` (stereo not drawn) [H-1]: in assay [2], the “pH dependence of Ki” value is “increasing approximately ten times for each unit increase in buffer pH”.
